Patent publication US7022667B2, “O-derivatized nocathiacin derivatives” (Bristol-Myers Squibb Company, priority 2002, dated 2006)
In brackets after ≈: the same amount, converted by molar mass.

How the values were obtained:
Test in all cases: MIC, broth micro dilution assay (NCCLS)
Assay type in all cases: cell-based
[1] = test system: Streptococcus pneumoniae A28272; settings: 50% Mueller-Hinton medium and 50% Todd Hewitt medium, 35° C., 18 hours
Procedure: (§1) The serial broth dilution method used Mueller-Hinton medium except for the Streptococcus pneumoniae which was tested in 50% Mueller-Hinton medium and 50% Todd Hewitt medium. The final bacterial inoculate contained approximately 5×10^5 cfu/well and was run on microtiter plates. The volume of each well was 100 μL and the plates were incubated at 35° C. for 18 hours in ambient air. The MIC was defined as the lowest drug concentration that prevented visible growth.

[2] = test system: Enterococcus faecalis A20688; settings: Mueller-Hinton medium, 35° C., 18 hours
Procedure: as §1

[3] = test system: Staphylococcus aureus A15090; settings: Mueller-Hinton medium, 35° C., 18 hours
Procedure: as §1

Structure (SMILES) | MIC (μg/mL) Streptococcus pneumoniae A28272 [1] | MIC (μg/mL) Enterococcus faecalis A20688 [2] | MIC (μg/mL) Staphylococcus aureus A15090 [3]
C=C(NC(=O)c1csc(-c2nc3c(cc2O)-c2nc(cs2)C(=O)NC(C(C)O)C(=O)NC(=C(C)OC)c2nc(cs2)C(=O)NC2c4nc(cs4)C(=O)NC(COC(=O)c4c5c6c(cccc6n4OCc4ccc(C(=O)OC6CCCCO6)cc4)COC(=O)C(OC4CC(C)(O)C(N(C)C)C(C)O4)C2OC5)c2nc-3cs2)n1)C(N)=O (stereo not drawn) [Example 10] | 0.015 µg/mL (≈ 0.00906 µM) | 0.5 µg/mL (≈ 0.302 µM) | 0.5 µg/mL (≈ 0.302 µM)
C=C(NC(=O)c1csc(-c2nc3c(cc2OCC(=O)N(C)C)-c2nc(cs2)C(=O)NC(C(C)O)C(=O)NC(=C(C)OC)c2nc(cs2)C(=O)NC2c4nc(cs4)C(=O)NC(COC(=O)c4c5c6c(cccc6n4OCC(=O)N(C)C)COC(=O)C(OC4CC(C)(O)C(N(C)C)C(C)O4)C2OC5)c2nc-3cs2)n1)C(N)=O (stereo not drawn) [Example 71] | 0.125 µg/mL (≈ 0.0777 µM) | 4.0 µg/mL (≈ 2.49 µM) | 8.0 µg/mL (≈ 4.98 µM)
C=C(NC(=O)c1csc(-c2nc3c(cc2O)-c2nc(cs2)C(=O)NC(C(C)O)C(=O)NC(=C(C)OC)c2nc(cs2)C(=O)NC2c4nc(cs4)C(=O)NC(COC(=O)c4c5c6c(cccc6n4OCOCC[Si](C)(C)C)COC(=O)C(OC4CC(C)(O)C(N(C)C)C(C)O4)C2OC5)c2nc-3cs2)n1)C(N)=O (stereo not drawn) [Example 45] | 0.03 µg/mL (≈ 0.0191 µM) | 1.0 µg/mL (≈ 0.638 µM) | 2.0 µg/mL (≈ 1.28 µM)
COC(C)=C1NC(=O)C(C(C)O)NC(=O)c2csc(n2)-c2cc(O)c(-c3nc(C(N)=O)cs3)nc2-c2csc(n2)C2COC(=O)c3c4c5c(cccc5n3OCCCS(=O)(=O)O)COC(=O)C(OC3CC(C)(O)C(N(C)C)C(C)O3)C(OC4)C(NC(=O)c3csc1n3)c1nc(cs1)C(=O)N2 (stereo not drawn) [Example 53] | 0.125 µg/mL (≈ 0.0839 µM) | 1.0 µg/mL (≈ 0.671 µM) | 0.25 µg/mL (≈ 0.168 µM)
C=C(NC(=O)c1csc(-c2nc3c(cc2O)-c2nc(cs2)C(=O)NC(C(C)O)C(=O)NC(=C(C)OC)c2nc(cs2)C(=O)NC2c4nc(cs4)C(=O)NC(COC(=O)c4c5c6c(cccc6n4OC(=O)NCCOCCOCCOCCOC)COC(=O)C(OC4CC(C)(O)C(N(C)C)C(C)O4)C2OC5)c2nc-3cs2)n1)C(N)=O (stereo not drawn) [Example 62] | 0.015 µg/mL (≈ 0.00898 µM) | 0.125 µg/mL (≈ 0.0748 µM) | 0.125 µg/mL (≈ 0.0748 µM)
C=C(NC(=O)c1csc(-c2nc3c(cc2O)-c2nc(cs2)C(=O)NC(C(C)O)C(=O)NC(=C(C)OC)c2nc(cs2)C(=O)NC2c4nc(cs4)C(=O)NC(COC(=O)c4c5c6c(cccc6n4OC(=O)NCCCC)COC(=O)C(OC4CC(C)(O)C(N(C)C)C(C)O4)C2OC5)c2nc-3cs2)n1)C(N)=O (stereo not drawn) [Example 15] | 0.007 µg/mL (≈ 0.00456 µM) | 0.03 µg/mL (≈ 0.0195 µM) | ≦0.001 μg/mL
C=C(NC(=O)c1csc(-c2nc3c(cc2O)-c2nc(cs2)C(=O)NC(C(C)O)C(=O)NC(=C(C)OC)c2nc(cs2)C(=O)NC2c4nc(cs4)C(=O)NC(COC(=O)c4c5c6c(cccc6n4OC)COC(=O)C(OC4CC(C)(O)C(N(C)C)C(C)O4)C2OC5)c2nc-3cs2)n1)C(N)=O (stereo not drawn) [Example 6] | 0.003 µg/mL (≈ 0.00207 µM) | 0.125 µg/mL (≈ 0.0861 µM) | 0.03 µg/mL (≈ 0.0207 µM)
C=C(NC(=O)c1csc(-c2nc3c(cc2O)-c2nc(cs2)C(=O)NC(C(C)O)C(=O)NC(=C(C)OC)c2nc(cs2)C(=O)NC2c4nc(cs4)C(=O)NC(COC(=O)c4c5c6c(cccc6n4OCCCNS(=O)(=O)c4cn(C)cn4)COC(=O)C(OC4CC(C)(O)C(N(C)C)C(C)O4)C2OC5)c2nc-3cs2)n1)C(N)=O (stereo not drawn) [Example 47] | 0.015 µg/mL (≈ 0.00915 µM) | 0.25 µg/mL (≈ 0.153 µM) | 0.06 µg/mL (≈ 0.0366 µM)
C=C(NC(=O)c1csc(-c2nc3c(cc2OCOP(=O)([O-])O)-c2nc(cs2)C(=O)NC(C(C)O)C(=O)NC(=C(C)OC)c2nc(cs2)C(=O)NC2c4nc(cs4)C(=O)NC(COC(=O)c4c5c6c(cccc6n4OCOP(=O)([O-])O)COC(=O)C(OC4CC(C)(O)C(N(C)C)C(C)O4)C2OC5)c2nc-3cs2)n1)C(N)=O.[Na+].[Na+] (stereo not drawn) [Example 22] | 0.015 µg/mL | 0.25 µg/mL | 0.125 µg/mL
C=C(NC(=O)c1csc(-c2nc3c(cc2OCCO)-c2nc(cs2)C(=O)NC(C(C)O)C(=O)NC(=C(C)OC)c2nc(cs2)C(=O)NC2c4nc(cs4)C(=O)NC(COC(=O)c4c5c6c(cccc6n4OCCO)COC(=O)C(OC4CC(C)(O)C(N(C)C)C(C)O4)C2OC5)c2nc-3cs2)n1)C(N)=O (stereo not drawn) [Example 77] | 0.03 µg/mL (≈ 0.0197 µM) | 1.0 µg/mL (≈ 0.655 µM) | 0.5 µg/mL (≈ 0.328 µM)
